Assay [1] deals with MIA-PACA2 pancreatic cancer cell lines. Put plainly: Cell proliferation assay, MIA-PACA2, alternate assay conditions (DAPI staining, 4 days). It is filed as cell-based. The following applies: Homo sapiens; for inhibition at 10 µM: MIA PaCa-2, 96 h, tested at 10 μM (*), 4 days, alternate conditions. As to the method: Cell lines: Tumor-derived pancreatic cancer cell lines MIA-PACA2 were purchased from ATCC and grown in complete DMEM-High Glucose medium supplemented with penicillin (100 U/mL), streptomycin (100 μg/mL), and 10% heat-inactivated FBS at 37° C. in a humidified incubator with 5% CO2.
Method: Cells are plated at 4000 cells/well density in 96-wells plate. The next day tested small molecules are added to the cells in the final concentration of 10 μM in the presence of 0.3% DMSO and 10% FBS. After small molecules addition, cells are incubated for 4 days at 37° C. in a humidified incubator with 5% CO2. For IC50 value determination, serial dilutions of compounds were added to cells under the same conditions.
Assay: At the end of the incubation period, cell cultures are fixed with a 50-50 mixture (v/v) acetone-methanol for 10 minutes at −20° C., followed by rehydration in PBS for 10 minutes at room temperature. After rehydration, cells are stained with DAPI (1 μg/ml) in PBS for 10 minutes at room temperature, followed by 3 washes with PBS. After staining, DAPI fluorescence is recorded (358 nm excitation/461 nm emission) with the 96-well plate reader Molecular Devices Spectramax M3; degree of small mole-cule-dependent proliferation inhibition is calculated from raw data assuming No Serum cells value as 100%.

Assay [2] has as its target KRas G12C/Q61H double mutant (Homo sapiens (Human), UniProt P01116, G12C/Q61H). Put plainly: Ras GTP binding domain inhibition assay (labeled GTP). As to the method: (§1) Buffer-I: • 50 mM Tris, pH 7.5 • 150 mM NaCl (optional) • 1 mM MgCl2 • 1 mM DTT. • KRas G12D mutant protein was expressed as a His-tagged protein. Purified His-KRas G12D protein was diluted in buffer-I to a final concentration of 3-10 μg/ml. • 200 μl of the diluted His-KRas G12D protein was added to a nickel coated 96 well plate and incubated overnight at 4° C. • The next day, wells were washed 3× in 200 μl of Buffer-I. • Then 200 μl of Buffer-I were added to each well in the presence of 1% DMSO. • Tested compounds were added to the protein-coated wells at a concentration of 20 μM, and incubated for 3 hours at room temperature. While performing IC50 measurements a serial dilution of all tested concentrations was prepared.
(§2) Then 22 μl of Cy3-GTP or Cy5-GTP was added to each well. The labeled GTP was incubated for 45 min. at room temperature. • Following GTP incubation, wells were washed 3× in Buffer-I, and 200 μl of Buffer-I were added to each well. • Following washes, the amount of bound labeled-GTP was measured with an Eppendorf AF2200 plate reader.
(§3) By substituting KRas G12D mutant protein with KRas G12C mutant, KRas wild type, KRas Q61H mutant, KRas G12D/Q61H double mutant or KRas G12C/Q61H double mutant under the assay conditions described above, KRas G12C mutant KRas wild type, KRas Q61H mutant, KRas G12D/Q61H double mutant and KRas G12C/Q61H double mutant inhibition, respectively, were each determined.

A further assay concerns the target KRas Q61H mutant (Homo sapiens (Human), UniProt P01116, Q61H). Described as above. As to the method: as §1, §2, §3
The next assay concerns the target KRas G12C mutant (Homo sapiens (Human), UniProt P01116, G12C). The assay is described as above. How it is done:
as §1, §2, §3

Assay [3] concerns the target KRas G12D/Q61H double mutant (Homo sapiens (Human), UniProt P01116, G12D/Q61H). The description is as above. How it is done: as §1, §2, §3
Another assay deals with KRas wild type (Homo sapiens (Human), UniProt P01116). The description is as above. As to the method:
as §1, §2, §3

The next assay deals with KRas G12D mutant protein (Homo sapiens (Human), UniProt P01116, G12D). Described as above. How it is done:
The following method was developed as specific assay for KRas G12D mutant protein.
as §1, §2

The target in the next assay is Rac-1 (Homo sapiens (Human), UniProt P63000). In words: Rac and Rho inhibition assay (labeled GTP). The following applies: read-out: Rac-1 % Inh. It is filed as binding.
The target of the next assay is Rho-A (Homo sapiens (Human), UniProt P61586). Put plainly: Rac and Rho inhibition assay (labeled GTP). It is filed as binding. The conditions noted are these: read-out: Rho-A % Inh.
Chain of Rho-A (P61586 whole entry): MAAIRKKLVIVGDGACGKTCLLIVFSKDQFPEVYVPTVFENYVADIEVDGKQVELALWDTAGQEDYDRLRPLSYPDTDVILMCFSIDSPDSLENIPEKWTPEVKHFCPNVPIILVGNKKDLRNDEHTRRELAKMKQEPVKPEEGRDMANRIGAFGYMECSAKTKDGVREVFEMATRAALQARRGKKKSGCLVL
The mark [4] stands for this setting: compound at 20 μM, read-out: % Inhibition at 20 μM, KRas G12D Q61H.
The mark [5] stands for this setting: 20 μM compound, read-out: % Inhibition at 20 μM, KRas G12D Q61H.

Where two headings read alike, the source gives them in different places.

Chain of KRas G12C mutant (P01116-2 other isoform, or with tags, fused parts or gaps G12C): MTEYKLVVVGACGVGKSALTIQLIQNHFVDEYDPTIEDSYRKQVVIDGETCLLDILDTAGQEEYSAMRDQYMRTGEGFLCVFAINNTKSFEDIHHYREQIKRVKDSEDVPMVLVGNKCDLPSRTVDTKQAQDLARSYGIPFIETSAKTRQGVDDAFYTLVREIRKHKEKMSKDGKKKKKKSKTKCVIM
Chain of KRas G12D/Q61H double mutant (P01116-2 other isoform, or with tags, fused parts or gaps G12D/Q61H): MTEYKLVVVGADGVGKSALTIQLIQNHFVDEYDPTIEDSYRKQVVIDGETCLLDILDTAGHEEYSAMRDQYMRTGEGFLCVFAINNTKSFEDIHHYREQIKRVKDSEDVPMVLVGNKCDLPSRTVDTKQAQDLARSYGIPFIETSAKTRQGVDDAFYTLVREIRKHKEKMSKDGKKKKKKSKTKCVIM
Chain of KRas Q61H mutant (P01116-2 other isoform, or with tags, fused parts or gaps Q61H): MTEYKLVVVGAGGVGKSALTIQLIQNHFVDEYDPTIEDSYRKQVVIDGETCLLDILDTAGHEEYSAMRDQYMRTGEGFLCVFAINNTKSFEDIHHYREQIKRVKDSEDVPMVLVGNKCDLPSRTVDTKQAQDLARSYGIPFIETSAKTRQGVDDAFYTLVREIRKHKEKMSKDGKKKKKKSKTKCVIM
Chain of KRas wild type (P01116-2 other isoform, or with tags, fused parts or gaps): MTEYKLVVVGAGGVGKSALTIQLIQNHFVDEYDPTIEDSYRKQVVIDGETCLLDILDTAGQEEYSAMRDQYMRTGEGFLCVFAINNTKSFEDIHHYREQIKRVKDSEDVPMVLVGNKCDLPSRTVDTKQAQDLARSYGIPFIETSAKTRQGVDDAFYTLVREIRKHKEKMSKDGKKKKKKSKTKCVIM
Chain of KRas G12C/Q61H double mutant (P01116-2 other isoform, or with tags, fused parts or gaps G12C/Q61H): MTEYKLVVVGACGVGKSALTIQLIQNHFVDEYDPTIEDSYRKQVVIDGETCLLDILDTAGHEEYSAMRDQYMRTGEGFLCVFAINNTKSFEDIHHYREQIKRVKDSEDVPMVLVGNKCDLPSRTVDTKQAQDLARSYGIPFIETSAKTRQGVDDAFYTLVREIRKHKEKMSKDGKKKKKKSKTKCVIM
Chain of KRas G12D mutant protein (P01116-2 other isoform, or with tags, fused parts or gaps G12D): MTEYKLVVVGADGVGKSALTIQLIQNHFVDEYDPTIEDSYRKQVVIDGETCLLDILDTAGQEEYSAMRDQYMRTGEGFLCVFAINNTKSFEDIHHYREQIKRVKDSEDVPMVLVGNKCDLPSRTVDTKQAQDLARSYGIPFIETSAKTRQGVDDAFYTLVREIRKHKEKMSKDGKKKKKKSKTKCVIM

Take `COCC(C)Nc1nc(-c2ncccn2)nc2sc(-c3ccncc3)c(-c3ccccc3)c12` (centres unmarked): in [1], the inhibition at 10 µM was 51 to 75%.
The same measure, in the same setting: under `Cc1cccc(-c2c(-c3ccccc3)sc3c(O)nc(-c4nccn4C)nc23)c1` stands 25 to 50%.
One may read the IC50 as the concentration at which inhibition is half-maximal. High values mean a need for much substance, low ones inhibition by little substance. In assay [1], `COc1ccc(-c2c(-c3ccccc3)sc3c(O)nc(-c4cccn4C)nc23)cn1` displayed an inhibition at 10 µM of 76 to 100%. This compound had an IC50 in [1] (MIA PaCa-2, same assay as % inhibition: alternate conditions) of 501 to 1000 nM.
In [2] (compound at 20 μM), `O=C(NCCc1cncs1)c1csc2nc(-c3ccccn3)nc(N3CCOCC3)c12` came in with an inhibition at 20 µM of 1 to 25%.
In the case of `Oc1nc(-c2ccccn2)nc2ccsc12`, the inhibition at 20 µM on KRas Q61H mutant (compound at 20 μM) was in the range of 51 to 75%; on KRas G12C mutant (compound at 20 μM), 25 to 50%; in assay [3] (setting [4]), 25 to 50%; on KRas wild type (compound at 20 μM) it was 1 to 25%; in assay [2] (compound at 20 μM), 25 to 50%; at KRas G12D mutant protein (compound at 20 μM), 1 to 25%.
With `CN(C)COc1ccc(-c2csc3c(O)nc(-c4ccccn4)nc23)cn1`, the inhibition at 20 µM (at KRas Q61H mutant (compound at 20 μM); at KRas G12C mutant (compound at 20 μM); in assay [3] (setting [4]); on KRas wild type (compound at 20 μM); in assay [2] (compound at 20 μM); at KRas G12D mutant protein (compound at 20 μM)) was 51 to 75% in each case.
For the compound `O=C(CCC1N=NN=N1)Nc1nc(-c2ccccn2)nc2sccc12`, the inhibition at 20 µM on KRas Q61H mutant (compound at 20 μM) lay in the range of 51 to 75%; on KRas G12C mutant (compound at 20 μM), 25 to 50%; in assay [3] (setting [4]) it was 51 to 75%; on KRas wild type (compound at 20 μM) it was 51 to 75%; in [2] (compound at 20 μM) it was 51 to 75%; at KRas G12D mutant protein (compound at 20 μM), 51 to 75%.
In the case of `COc1nc(-c2ccccn2)nc2c(C)c(C(=O)N3CCN(c4ccccc4)CC3)sc12`, the inhibition at 20 µM (on KRas Q61H mutant (20 μM compound); in assay [3] (setting [5]); in assay [2] (20 μM compound)) was 51 to 75% throughout.
On to `COc1cnc(CNC(=O)c2csc3nc(-c4ccccn4)nc(N)c23)[nH]c1=O`, for which the inhibition at 20 µM (on KRas Q61H mutant (20 μM compound); in [2] (20 μM compound)) was 25 to 50% in each case.
`OC[C@H]1O[C@@H](c2csc3c2N=C(c2ccccn2)NC3O)[C@H](O)[C@@H]1O` (some centres unmarked): the inhibition at 20 µM at KRas Q61H mutant (20 μM compound) was 51 to 75%; at KRas G12C mutant (20 μM compound), 51 to 75%; in assay [3] (setting [5]) it was 25 to 50%; at KRas wild type (20 μM compound), 25 to 50%; in assay [2] (20 μM compound) it was 25 to 50%; at KRas G12D mutant protein (20 μM compound) it was 25 to 50%.
Turning to `Cn1cnc(-c2nc(O)c3c(C4C=CC=CC4)c(-c4ccncc4)sc3n2)c1` (centres unmarked), the inhibition at 20 µM (at KRas Q61H mutant (20 μM compound); in assay [3] (setting [5]); in [2] (20 μM compound)) was 1 to 25% each time.
Regarding `COc1ccnc(-c2nc(O)c3c(C#N)csc3n2)c1`, the inhibition at 20 µM at Rac-1 was in the range of 51 to 75%; on Rho-A, 25 to 50%.
Turning to `COC1CN=C(CNC(=O)c2cc3nc(-c4ccccn4)nc(O)c3s2)NC1=O` (centres unmarked), the inhibition at 20 µM at Rac-1 was 51 to 75%; in assay [3] (at 20 μM, read-out: KRas Gl2D Q61H % Inh.) it was 25 to 50%; at Rho-A, 51 to 75%.
For `COc1ccc(COC[C@H]2O[C@@H](c3csc4c(=O)[nH]c(-c5ccccn5)nc34)[C@H](O)[C@@H]2O)cc1`, the results for the inhibition at 20 µM on Rac-1 and on Rho-A were 51 to 75% and 76 to 100%, respectively.
As to `CCC(C)c1csc2c(O)nc(-c3ccccn3)nc12` (centres unmarked) [drawing 3492], the inhibition at 20 µM fell in the range of 51 to 75% on KRas Q61H mutant (20 μM compound); 25 to 50% on KRas G12C mutant (20 μM compound); 51 to 75% in assay [3] (setting [5]); 25 to 50% on KRas wild type (20 μM compound); 51 to 75% in assay [2] (20 μM compound); 25 to 50% on KRas G12D mutant protein (20 μM compound).
